Values quoted from earlier work as cited in patent US20240165081A1, “COMPOSITIONS AND METHODS FOR TREATMENT OF INSOMNIA” (priority 2022, published 2024).

Molecular target: adenosine A2A receptor (Homo sapiens, UniProt P29274)
Sequence (P29274 whole entry): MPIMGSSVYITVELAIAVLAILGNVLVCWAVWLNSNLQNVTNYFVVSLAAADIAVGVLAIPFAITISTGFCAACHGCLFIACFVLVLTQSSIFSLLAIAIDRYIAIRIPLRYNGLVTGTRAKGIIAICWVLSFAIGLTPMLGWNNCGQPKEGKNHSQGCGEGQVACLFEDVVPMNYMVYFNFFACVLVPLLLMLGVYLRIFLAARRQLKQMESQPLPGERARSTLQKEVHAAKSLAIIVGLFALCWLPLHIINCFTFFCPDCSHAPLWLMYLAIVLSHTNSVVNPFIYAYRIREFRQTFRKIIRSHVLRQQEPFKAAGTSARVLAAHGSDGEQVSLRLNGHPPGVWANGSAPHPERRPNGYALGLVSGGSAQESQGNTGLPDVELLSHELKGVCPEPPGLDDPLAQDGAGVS

For `C=C(C)C1CC=C(C)CC1` [D-limonene, 4-isopropenyl-1-methylcyclohexene], the “binding to the adenosine A2A receptor” value is listed as “found to bind to the adenosine A2A receptor”.
